From ChEMBL document CHEMBL1201862, “PubChem BioAssay data set” (2004)
The source made the active and inactive calls.

Key:
[1] = target: Genome polyprotein (Hepatitis C virus, UniProt Q2Q167); assay: disruption of hepatitis C core self-association – biochemical, TR-FRET, dose response (AID 2159); set-up: species or system Hepacivirus hominis;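 also: blocks dimerization of HCV core protein measured by TR-FRET between tagged core106 pairs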
[2] = target: Female germline-specific tumor suppressor gld-1 (Caenorhabditis elegans, UniProt Q17339); assay: blockers of GLD-1/TGE RNA complex formation – biochemical, fluorescence polarization, C. elegans, dose response (AID 2802);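 also: fluorescence polarization of labeled TGE RNA bound by purified gld-1 protein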
[3] = target: Protein Rev (Human immunodeficiency virus type 1 group M subtype B (isolate HXB2)(HIV-1), UniProt P04618); assay: blockers of HIV Rev/RRE RNA complex – biochemical, fluorescence polarization, HIV-1, dose response (AID 434976); set-up: species or system Human immunodeficiency virus 1
[4] = microbe, parasite or virus in culture; assay type: functional; settings: Mycobacterium tuberculosis
[5] = target: Eukaryotic translation initiation factor 4E (Mus musculus, UniProt P63073); assay: blockers of eIF4G binding by eIF4E – biochemical, TR-FRET, dose response (AID 855); assay type: functional;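 also: potency for disrupting eIF4E binding to eIF4GI seen as loss of FRET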
[6] = target: Melanin-concentrating hormone receptor 1 (Homo sapiens, UniProt Q99705); assay: Late-stage fluorescence-based counterscreen for antagonists of the G-protein coupled receptor 7 (GPR7): cell-based dose response assay to identify antagonists of the melanin-concentrating hormone receptor 1 (MCHR1). [Related pubchem assays (depositor defined):AID1861, AID1880, AID1952, AID2148, AID2251, AID2257, AID485339]; assay type: functional;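 also: stimulated with 30 nM MCH peptide agonist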
[7] = target: T1, Neuropeptides B/W receptor type 1 (Homo sapiens, UniProt P48145); assay: human NPBW1 receptor blockade, IC50 – cell-based, fluorescence, dose response, late-stage follow-up (AID 463251); assay type: functional
T1 sequence (P48145 whole entry): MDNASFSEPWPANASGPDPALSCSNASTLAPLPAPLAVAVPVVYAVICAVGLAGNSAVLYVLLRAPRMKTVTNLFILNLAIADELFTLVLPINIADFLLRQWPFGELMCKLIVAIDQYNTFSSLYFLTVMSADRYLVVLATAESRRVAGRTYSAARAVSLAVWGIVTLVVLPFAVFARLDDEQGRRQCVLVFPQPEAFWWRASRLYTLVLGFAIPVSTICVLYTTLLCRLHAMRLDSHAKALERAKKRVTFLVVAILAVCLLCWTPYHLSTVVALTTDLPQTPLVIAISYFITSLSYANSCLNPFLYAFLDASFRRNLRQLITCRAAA

[8] = loss of viability in HepG2 cells – cell-based, CellTiter-Glo, cherry-picked, cytotoxicity control for Shn3 inhibitor project, dose response (AID 624134); assay type: functional
[9] = non-specific 3'UTR reporter inhibition in Clone20-Shn3RL – cell-based, Renilla luciferase, cherry-picked, counter-screen for Shn3 inhibitor project, dose response (AID 624133); assay type: functional
[10] = reduction of Shn3 3'UTR-driven luciferase in osteoblasts – cell-based, Clone20 osteoblasts, firefly luciferase, cherry-picked, dose response (AID 624132); assay type: functional;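 also: firefly luciferase luminescence from reporter carrying the Shn3 3'UTR in osteoblasts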
[11] = target: Beta-galactosidase (Escherichia coli, UniProt Q8VNN2); assay: detection-enzyme interference by beta-gal modulators – biochemical, E. coli enzyme, set 3, artefact control for CCR6 antagonist project, dose response (AID 504712); assay type: functional
[12] = target: Polyadenylate-binding protein 1 (Homo sapiens, UniProt P11940); assay: PABP inhibition in translation initiation, SAR follow-up (AID 435018); assay type: functional
[13] = target: Eukaryotic translation initiation factor 4H (Homo sapiens, UniProt Q15056); assay: inhibitors of translation initiation factor eIF4H – SAR follow-up (AID 435011); assay type: functional
[14] = target: Phosphoethanolamine/phosphocholine phosphatase (Homo sapiens, UniProt Q8TCT1); assay: SAR assay for compounds that inhibit PHOSPHO1. [Related pubchem assays (depositor defined):AID1545, AID1565, AID1574]
[15] = target: T2, Mannose-6-phosphate isomerase (Homo sapiens, UniProt P34949); assay: phosphomannose isomerase inhibition – biochemical, fluorescence intensity, confirmation (AID 1535)
T2 sequence (P34949 whole entry): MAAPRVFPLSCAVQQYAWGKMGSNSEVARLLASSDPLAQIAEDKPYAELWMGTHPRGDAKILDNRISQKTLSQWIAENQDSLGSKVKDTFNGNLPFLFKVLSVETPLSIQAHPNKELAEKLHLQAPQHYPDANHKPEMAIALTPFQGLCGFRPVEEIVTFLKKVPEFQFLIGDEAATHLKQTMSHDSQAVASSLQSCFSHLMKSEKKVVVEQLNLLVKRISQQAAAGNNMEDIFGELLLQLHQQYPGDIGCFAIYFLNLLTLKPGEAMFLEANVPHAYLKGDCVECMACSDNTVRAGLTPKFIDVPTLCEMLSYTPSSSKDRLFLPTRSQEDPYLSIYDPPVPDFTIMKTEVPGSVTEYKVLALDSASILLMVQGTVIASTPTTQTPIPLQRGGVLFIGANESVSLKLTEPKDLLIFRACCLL

[16] = target: Phosphomannomutase 2 (Homo sapiens, UniProt O15305); assay: Counter screen SAR assay for PMM2 inhibitors via a fluorescence intensity assay. [Related pubchem assays (depositor defined):AID1545, AID1574]
[17] = target: Acylamino-acid-releasing enzyme (Homo sapiens, UniProt P13798); assay: endogenous PME-1 and serine hydrolase inhibition – cell lysate, mouse brain cytosol, FP-rhodamine, gel ABPP, selectivity assay for PME-1 inhibitor project, dose response, panel member APEH Assay Panel member description: Inhibition of N-acylaminoacyl-peptide hydrolase (APEH) (anti-target) (AID 2366)
[18] = Late stage results from the probe development effort to identify inhibitors of the protein methylesterase PME-1: Luminescence-based counterscreen assay to identify cytotoxic compounds.; assay type: functional
[19] = target: Intestinal-type alkaline phosphatase (Homo sapiens, UniProt P09923); assay: Dose Response confirmation of uHTS hits from a small molecule inhibitors of human intestinal alkaline phosphatase via a luminescent assay. [Related pubchem assays (depositor defined):AID2544, AID2574]; assay type: functional
[20] = target: G-protein coupled receptor 55 (Homo sapiens, UniProt Q9Y2T6); assay: selective activators of receptor GPR55 – imaging, U2OS cells, beta-arrestin-GFP redistribution, primary screen (AID 1961); assay type: functional
[21] = tested on: Vero; assay: antiviral protection of cells from WNV – synthesized analogs, SAR follow-up (AID 2238); assay type: functional, cell-based; settings: Chlorocebus sabaeus
[22] = tested on: Vero; assay: Vero cell viability after compound exposure – synthesized analogs, set II, cytotoxicity control for West Nile virus antiviral project, SAR follow-up (AID 2402); assay type: functional; settings: Chlorocebus sabaeus
[23] = tested on: Vero; assay: host cell viability loss, Vero E6 – synthesized analogs, cytotoxicity control for West Nile virus antiviral project, SAR follow-up (AID 2244); assay type: functional; settings: Chlorocebus sabaeus
[24] = tested on: Vero; assay: Vero 76 cell viability after compound exposure – Vero 76 cells, synthesized analogs, cytotoxicity control for West Nile virus antiviral project, SAR follow-up (AID 2414); assay type: functional; settings: Chlorocebus sabaeus
[25] = target: Paired box protein Pax-8 (Homo sapiens, UniProt Q06710); assay: PAX8 transcriptional activity inhibition in RMG-I – RMG-I cells, luciferase, cherry-pick, dose response (AID 687027); assay type: functional, cell-based;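 also: luciferase reporter driven by Pax8 target thyroperoxidase promoter measured by SteadyGlo luminescence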
[26] = target: T3, Protein RecA (Mycobacterium tuberculosis, UniProt P9WHJ3); assay: Fluorescence Cell-Free Homogeneous Dose Retest to Identify Inhibitors of RecA-Intein Splicing Activity. [Related pubchem assays (depositor defined):AID2097, AID2223, AID489010, AID492950]; assay type: functional
T3 sequence (P9WHJ3 whole entry): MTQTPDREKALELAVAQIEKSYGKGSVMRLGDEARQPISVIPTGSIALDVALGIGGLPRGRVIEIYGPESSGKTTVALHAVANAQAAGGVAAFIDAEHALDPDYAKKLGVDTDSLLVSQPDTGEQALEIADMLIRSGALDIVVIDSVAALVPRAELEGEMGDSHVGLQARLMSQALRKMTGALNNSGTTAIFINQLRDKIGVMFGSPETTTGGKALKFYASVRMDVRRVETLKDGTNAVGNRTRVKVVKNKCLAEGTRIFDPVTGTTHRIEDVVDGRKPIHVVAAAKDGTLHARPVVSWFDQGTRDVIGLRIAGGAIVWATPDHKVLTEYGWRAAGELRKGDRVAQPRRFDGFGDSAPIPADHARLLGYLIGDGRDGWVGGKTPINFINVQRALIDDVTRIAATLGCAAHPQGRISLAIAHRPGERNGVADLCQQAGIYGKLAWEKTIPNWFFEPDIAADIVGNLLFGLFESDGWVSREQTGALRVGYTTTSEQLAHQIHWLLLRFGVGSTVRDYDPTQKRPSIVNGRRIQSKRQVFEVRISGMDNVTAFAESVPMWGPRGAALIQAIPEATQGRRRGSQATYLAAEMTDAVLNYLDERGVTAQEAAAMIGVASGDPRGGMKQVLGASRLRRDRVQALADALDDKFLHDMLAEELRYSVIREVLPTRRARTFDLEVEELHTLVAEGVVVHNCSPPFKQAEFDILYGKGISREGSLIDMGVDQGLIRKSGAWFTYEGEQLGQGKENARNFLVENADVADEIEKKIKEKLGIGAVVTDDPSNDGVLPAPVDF

[27] = viability of HCT116 lacking mutant beta-catenin – cell-based, human colon tumor, dose response (AID 1045); assay type: functional;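 also: HCT116 colon tumor cells with beta catenin knocked out; cells exposed to compound for 60 hours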
[28] = target: T4, Replicative DNA helicase DnaB (Mycobacterium tuberculosis, UniProt P9WMR3); assay: DnaB intein splicing inhibitors, dose response, biochemical, cell-free fluorescence (AID 449749); assay type: functional
T4 sequence (P9WMR3 whole entry): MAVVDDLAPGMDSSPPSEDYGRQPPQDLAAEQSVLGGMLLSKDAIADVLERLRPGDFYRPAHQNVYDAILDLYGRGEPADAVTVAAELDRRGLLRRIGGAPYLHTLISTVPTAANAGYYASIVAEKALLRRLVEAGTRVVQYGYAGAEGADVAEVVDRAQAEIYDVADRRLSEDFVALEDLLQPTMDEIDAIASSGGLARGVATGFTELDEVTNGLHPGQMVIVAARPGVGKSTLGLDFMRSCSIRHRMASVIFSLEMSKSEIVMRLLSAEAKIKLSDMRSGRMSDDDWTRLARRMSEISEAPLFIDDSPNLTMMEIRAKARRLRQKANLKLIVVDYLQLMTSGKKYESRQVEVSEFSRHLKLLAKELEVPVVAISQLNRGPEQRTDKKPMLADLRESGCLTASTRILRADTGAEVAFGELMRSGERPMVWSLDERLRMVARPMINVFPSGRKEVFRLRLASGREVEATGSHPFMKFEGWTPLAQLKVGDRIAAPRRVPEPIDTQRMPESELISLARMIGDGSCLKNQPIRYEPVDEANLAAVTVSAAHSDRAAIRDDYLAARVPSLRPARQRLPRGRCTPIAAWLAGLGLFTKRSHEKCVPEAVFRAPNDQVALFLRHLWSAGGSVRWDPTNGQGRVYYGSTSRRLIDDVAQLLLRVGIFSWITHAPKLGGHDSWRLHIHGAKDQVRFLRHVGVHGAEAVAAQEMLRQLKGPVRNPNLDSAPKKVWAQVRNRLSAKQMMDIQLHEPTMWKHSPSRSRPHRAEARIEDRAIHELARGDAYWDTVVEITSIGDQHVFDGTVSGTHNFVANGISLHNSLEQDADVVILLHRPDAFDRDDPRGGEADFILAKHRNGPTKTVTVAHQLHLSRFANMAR

[29] = tested on: BJ; assay: growth inhibition of engineered Ras-driven BJ cells – cell-based, alamar blue fluorescence, cherrypicked samples, dose response (AID 2631); assay type: functional; settings: Homo sapiens;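 also: confirmatory dose-response assay in RAS-dependent BJ fibroblasts engineered with TERT, LT and ST, with cytotoxicity read by fluorescence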
[30] = tested on: INS1; assay: INS-1E survival protection against cytokine death – cell-based, luminescence, retest, dose response (AID 449756); assay type: functional; settings: Rattus norvegicus;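 also: cell death triggered by IL-1 beta plus TNF-alpha plus IFN-gamma mixture; protective hits raise ATP signal compared with cytokine alone wells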
[31] = viability of PTEN-deleted HCT116 cells – cell-based, HCT116 PTEN knockout, dose response (AID 1047); assay type: functional;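 also: HCT116 colon tumor cells with PTEN knocked out; cells exposed to compound for 60 hours before readout; potency for loss of cell viability measured by luminescence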
[32] = target: G-protein coupled receptor 35 (Homo sapiens, UniProt Q9HC97); assay: inhibition of zaprinast-stimulated GPR35 beta-arrestin translocation – imaging, U2OS, beta-arrestin-GFP, zaprinast agonist, primary screen (AID 2058); assay type: functional;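 also: antagonist potency meaning inhibition of agonist-induced arrestin redistribution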
Chain of G-protein coupled receptor 35 (Q9HC97 whole entry): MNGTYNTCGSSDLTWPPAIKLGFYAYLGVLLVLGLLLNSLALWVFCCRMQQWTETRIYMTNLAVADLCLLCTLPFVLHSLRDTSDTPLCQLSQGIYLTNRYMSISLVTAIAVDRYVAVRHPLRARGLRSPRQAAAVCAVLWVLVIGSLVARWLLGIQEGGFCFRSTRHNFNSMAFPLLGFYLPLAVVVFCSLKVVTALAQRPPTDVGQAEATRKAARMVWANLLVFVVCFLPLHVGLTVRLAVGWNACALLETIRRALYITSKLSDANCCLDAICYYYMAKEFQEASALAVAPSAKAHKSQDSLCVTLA

Chain of Protein Rev (P04618 whole entry): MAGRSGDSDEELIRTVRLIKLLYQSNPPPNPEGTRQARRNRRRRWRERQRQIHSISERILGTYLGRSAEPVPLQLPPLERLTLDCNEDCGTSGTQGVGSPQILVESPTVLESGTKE
Chain of Genome polyprotein (Q2Q167 whole entry): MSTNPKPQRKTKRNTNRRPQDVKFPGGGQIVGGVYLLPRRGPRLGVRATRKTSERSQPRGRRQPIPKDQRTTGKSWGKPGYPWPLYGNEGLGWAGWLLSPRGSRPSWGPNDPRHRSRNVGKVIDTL
Chain of Paired box protein Pax-8 (Q06710 whole entry): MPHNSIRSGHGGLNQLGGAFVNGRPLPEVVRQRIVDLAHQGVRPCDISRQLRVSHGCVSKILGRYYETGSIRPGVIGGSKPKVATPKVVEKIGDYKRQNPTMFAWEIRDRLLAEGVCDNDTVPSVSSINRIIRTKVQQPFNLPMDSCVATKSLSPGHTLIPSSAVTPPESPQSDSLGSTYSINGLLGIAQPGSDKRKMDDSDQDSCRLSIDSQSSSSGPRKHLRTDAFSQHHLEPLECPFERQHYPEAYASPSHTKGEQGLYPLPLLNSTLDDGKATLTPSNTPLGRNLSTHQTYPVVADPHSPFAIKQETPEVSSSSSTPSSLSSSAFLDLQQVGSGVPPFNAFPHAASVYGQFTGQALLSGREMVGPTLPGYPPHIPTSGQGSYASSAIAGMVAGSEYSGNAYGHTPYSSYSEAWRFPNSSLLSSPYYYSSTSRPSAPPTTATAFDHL
Chain of Acylamino-acid-releasing enzyme (P13798 whole entry): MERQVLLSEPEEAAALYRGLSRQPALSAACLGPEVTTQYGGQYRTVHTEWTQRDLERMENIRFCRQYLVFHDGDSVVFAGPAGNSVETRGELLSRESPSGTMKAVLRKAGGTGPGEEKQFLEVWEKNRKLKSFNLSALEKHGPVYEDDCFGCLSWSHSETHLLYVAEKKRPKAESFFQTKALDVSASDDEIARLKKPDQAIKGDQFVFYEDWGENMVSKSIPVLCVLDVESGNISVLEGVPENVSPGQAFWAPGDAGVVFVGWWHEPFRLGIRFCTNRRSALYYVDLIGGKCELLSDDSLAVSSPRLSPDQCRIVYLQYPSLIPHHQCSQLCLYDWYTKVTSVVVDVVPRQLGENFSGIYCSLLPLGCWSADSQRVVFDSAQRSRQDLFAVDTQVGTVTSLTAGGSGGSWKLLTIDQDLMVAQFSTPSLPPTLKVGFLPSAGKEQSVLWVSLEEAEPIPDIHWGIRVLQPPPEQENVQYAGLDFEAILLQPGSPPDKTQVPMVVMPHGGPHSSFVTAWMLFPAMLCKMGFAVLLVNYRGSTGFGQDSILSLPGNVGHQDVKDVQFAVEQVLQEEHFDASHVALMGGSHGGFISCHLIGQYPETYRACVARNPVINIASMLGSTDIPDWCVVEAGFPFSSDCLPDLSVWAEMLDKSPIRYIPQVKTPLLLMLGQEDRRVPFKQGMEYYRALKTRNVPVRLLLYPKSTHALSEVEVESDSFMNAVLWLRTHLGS
Chain of G-protein coupled receptor 55 (Q9Y2T6 whole entry): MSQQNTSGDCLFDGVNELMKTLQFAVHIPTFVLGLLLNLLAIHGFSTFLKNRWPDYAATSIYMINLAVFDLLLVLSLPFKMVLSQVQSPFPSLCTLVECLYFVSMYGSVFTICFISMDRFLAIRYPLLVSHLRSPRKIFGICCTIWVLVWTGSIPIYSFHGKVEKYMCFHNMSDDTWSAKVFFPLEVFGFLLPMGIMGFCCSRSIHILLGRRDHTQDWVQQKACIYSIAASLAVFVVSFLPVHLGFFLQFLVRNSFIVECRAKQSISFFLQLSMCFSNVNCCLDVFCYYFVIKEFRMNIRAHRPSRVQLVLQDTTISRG
Chain of Polyadenylate-binding protein 1 (P11940 whole entry): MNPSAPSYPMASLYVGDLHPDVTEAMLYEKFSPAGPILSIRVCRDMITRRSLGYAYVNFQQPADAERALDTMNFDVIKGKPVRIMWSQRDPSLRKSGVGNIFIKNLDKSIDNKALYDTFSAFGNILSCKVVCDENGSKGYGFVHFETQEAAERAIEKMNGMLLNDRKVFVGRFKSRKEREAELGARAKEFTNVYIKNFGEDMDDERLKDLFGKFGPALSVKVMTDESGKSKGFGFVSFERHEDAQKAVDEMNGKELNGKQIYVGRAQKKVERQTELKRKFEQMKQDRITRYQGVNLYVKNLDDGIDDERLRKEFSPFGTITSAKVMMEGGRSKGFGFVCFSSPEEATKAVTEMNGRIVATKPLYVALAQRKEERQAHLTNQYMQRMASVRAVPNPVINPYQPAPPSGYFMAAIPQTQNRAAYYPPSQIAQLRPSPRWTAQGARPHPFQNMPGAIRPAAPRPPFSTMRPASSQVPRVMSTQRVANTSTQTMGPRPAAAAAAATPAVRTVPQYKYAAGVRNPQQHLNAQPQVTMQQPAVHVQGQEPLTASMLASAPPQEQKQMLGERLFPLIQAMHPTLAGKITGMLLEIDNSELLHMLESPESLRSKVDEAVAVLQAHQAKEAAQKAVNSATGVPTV
Chain of Phosphomannomutase 2 (O15305 whole entry): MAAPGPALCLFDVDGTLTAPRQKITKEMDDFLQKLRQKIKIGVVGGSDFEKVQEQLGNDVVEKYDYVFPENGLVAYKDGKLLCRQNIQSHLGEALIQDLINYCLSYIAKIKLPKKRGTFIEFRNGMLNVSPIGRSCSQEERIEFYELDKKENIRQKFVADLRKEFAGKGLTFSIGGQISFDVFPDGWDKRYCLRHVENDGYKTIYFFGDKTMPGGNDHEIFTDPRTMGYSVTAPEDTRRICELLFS
Chain of Phosphoethanolamine/phosphocholine phosphatase (Q8TCT1 whole entry): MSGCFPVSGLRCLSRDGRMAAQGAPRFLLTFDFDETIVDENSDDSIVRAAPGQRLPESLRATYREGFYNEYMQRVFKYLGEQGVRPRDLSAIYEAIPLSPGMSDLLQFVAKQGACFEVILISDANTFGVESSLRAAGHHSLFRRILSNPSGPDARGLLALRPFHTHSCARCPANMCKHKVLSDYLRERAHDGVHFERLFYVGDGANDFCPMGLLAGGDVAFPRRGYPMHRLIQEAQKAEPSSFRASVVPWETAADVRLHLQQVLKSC
Chain of Eukaryotic translation initiation factor 4E (P63073 whole entry): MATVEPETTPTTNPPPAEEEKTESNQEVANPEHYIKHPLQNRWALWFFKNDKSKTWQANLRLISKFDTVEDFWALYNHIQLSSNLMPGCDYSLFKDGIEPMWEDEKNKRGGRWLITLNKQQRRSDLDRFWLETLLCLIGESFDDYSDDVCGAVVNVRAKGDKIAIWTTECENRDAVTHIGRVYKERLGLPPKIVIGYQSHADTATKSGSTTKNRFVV
Chain of Melanin-concentrating hormone receptor 1 (Q99705 whole entry): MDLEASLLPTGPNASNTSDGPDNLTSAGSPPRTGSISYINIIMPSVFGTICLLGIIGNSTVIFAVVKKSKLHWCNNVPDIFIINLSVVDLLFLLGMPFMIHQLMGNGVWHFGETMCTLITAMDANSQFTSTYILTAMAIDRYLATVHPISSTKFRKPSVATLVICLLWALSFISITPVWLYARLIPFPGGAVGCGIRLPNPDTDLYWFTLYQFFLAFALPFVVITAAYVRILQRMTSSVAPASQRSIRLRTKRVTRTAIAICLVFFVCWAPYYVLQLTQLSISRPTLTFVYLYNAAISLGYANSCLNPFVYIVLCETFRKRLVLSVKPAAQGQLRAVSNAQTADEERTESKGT
Chain of Female germline-specific tumor suppressor gld-1 (Q17339 whole entry): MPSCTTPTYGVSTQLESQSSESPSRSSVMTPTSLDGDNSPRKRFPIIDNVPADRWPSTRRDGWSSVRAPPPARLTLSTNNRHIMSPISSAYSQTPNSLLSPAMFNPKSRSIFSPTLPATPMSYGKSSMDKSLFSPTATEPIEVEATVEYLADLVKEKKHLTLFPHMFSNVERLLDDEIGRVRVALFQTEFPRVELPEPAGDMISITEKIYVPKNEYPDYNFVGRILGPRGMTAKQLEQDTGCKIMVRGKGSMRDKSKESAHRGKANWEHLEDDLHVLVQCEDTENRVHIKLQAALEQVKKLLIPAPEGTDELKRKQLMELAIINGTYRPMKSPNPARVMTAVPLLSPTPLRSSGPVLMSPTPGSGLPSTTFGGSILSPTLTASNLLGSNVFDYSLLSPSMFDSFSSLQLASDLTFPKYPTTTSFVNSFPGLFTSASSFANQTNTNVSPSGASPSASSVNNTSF

CC1=CC(=O)c2c(O)ccc(O)c2C1=O
IC50 [1]: > 49.8 µM (not active) | IC50 [2]: 5.58 µM (active) | IC50 [3]: > 75.4 µM (not active) | CC50 [4]: 12.9 µM (active) | IC50 [5]: 10.3 µM (active)

COc1ccc(Oc2c(Cl)cnn(-c3cccc(C#N)c3)c2=O)cc1
IC50 [6]: 14.2 µM (inactive) | IC50 [7]: 2.8 µM (active)

O=C1CC(Sc2nnc(-c3ccccc3O)o2)C(=O)N1c1ccccc1 (configuration not stated)
AC50 [8]: 45.2 µM (active) | AC50 [9]: 17.8 µM (active) | AC50 [10]: 12.9 µM (active) | IC50 [11]: > 66.6 µM (inactive)

Cc1cc(Cl)ccc1NC(=O)C1CCN(C(=O)c2cccs2)CC1
IC50 [12]: > 100 µM (inactive) | IC50 [13]: > 100 µM (inactive)

O=c1c2ccccc2sn1-c1cc(S(=O)(=O)N2CCOCC2)ccc1N1CCCCC1
IC50 [14]: 39.4 µM (inactive) | IC50 [15]: 39.2 µM (active) | IC50 [16]: > 100 µM (inactive)

N#C/C(=C\c1cccn1S(=O)(=O)c1cccc([N+](=O)[O-])c1)S(=O)(=O)c1ccc(F)cc1
IC50 [17]: > 50 µM (inactive) | CC50 [18]: 100 µM (active)

O=C(NCCCN1CCOCC1)c1ccc2c(c1)N(Cc1ccc(Cl)cc1)C(=O)c1ccccc1[S+]2[O-] (configuration not stated)
IC50 [19]: > 100 µM (inactive)

COC(=O)c1c(NC(=O)CN(c2ccccc2)S(C)(=O)=O)sc2c1CCCC2
EC50 [20]: 0.577 µM (active)

O=C(CSc1nc2ccccc2c(=O)n1-c1ccc(Cl)c(Cl)c1)Nc1ccc2c(c1)CCC2
IC50 [21]: 17.3 µM (active) | CC50 [22]: > 100 µM (active) | CC50 [23]: > 40 µM (active) | CC50 [24]: > 66.6 µM (active)

O=S(=O)(/C(=C/c1ccc(C(F)(F)F)cc1)c1nc2ccccc2[nH]1)c1ccccc1
AC50 [25]: 2.82 µM (active) | EC50 [26]: 5.85 µM (active) | EC50 [27]: 1.68 µM (active) | AC50 [28]: 3.54 µM (active) | EC50 [29]: 0.601 µM (active) | AC50 [30]: 4.43 µM (active) | EC50 [31]: 1.89 µM (active) | IC50 [32]: > 32 µM (inactive)
